In PubChem BioAssay AID1919009 (Molecular Pharmacology Branch, DTP, NCI, 2023):
Each block holds one molecule with its values, some of them ahead of it.

Test system: K24384-001-R-PDC complex spheroid growth
Test: Anticancer human tumor K24384-001-R-PDC patient-derived pancreatic adenocarcinoma cell line growth inhibition [AhR]
Settings: for IC50: curve of first compound; for viability, T/C: stronger effect = lower value
Text: Multicellular complex tumor spheroid response to aryl hydrocarbon receptor antagonists in combination with a variety of drugs and investigational agents in selected tumor cell lines
The current study was undertaken to assess response to aryl hydrocarbon receptor antagonists in combination with standard-of-care drugs and investigational agents in solid tumor complex spheroid models. Complex spheroids include a stromal component modeled by human endothelial cells (HUVEC) and fibroblasts modeled by human mesenchymal stem cells (MSCs). The concentration ranges selected for each drug and investigational agent were based upon clinically achievable concentrations if the clinical Cmax of the agent was known.
Compounds. The drugs and investigational agents: BAY 2416964 (NSC825713), GNF351 (NSC835774), CH-223191 (NSC835775), CPI-455 (NSC825282), aza-TdCyd (NSC777586), decitabine (NSC127716), belinostat (NSC758774), entinostat (NSC756642), pevonedistat (NSC761192), tazemetostat (NSC777109), talazoparib (NSC765396), olaparib (NSC753686), selinexor (NSC780203), nedisertib (M3814, NSC802822), bortezomib (NSC756655), venetoclax (NSC766270), doxorubicin (NSC123127), elimusertib (BAY189344, NSC800525), ceralasertib (AZD6738, NSC777638), TAK-243 (NSC785004), alisertib (NSC759677), etoposide (NSC141540), topotecan (NSC609699), eribulin (NSC707389), gemcitabine (NSC613327), carboplatin (NSC241240), cisplatin (NSC119875), and SN-38 (NSC673596) were obtained from the National Cancer Institute (NCI) Developmental Therapeutics Program Chemical Repository (32). The FDA-approved anticancer drug set is available from the Developmental Therapeutics Program at https://dtp.cancer.gov/organization/dscb/obtaining/available plates.htm. […] The stock solutions were prepared in dimethyl sulfoxide (DMSO, Sigma-Aldrich, St. Louis, MO, cat. D2650), except for the platinum compounds which were prepared in saline (Quality Biological, Gaithersburg, MD, cat. 114-055-101), at 800-fold the tested concentration and stored at -70 degrees C prior to their use. All drugs and investigational agents were tested over a range starting from a high concentration at or near the clinical Cmax and decreasing in half-log increments. If the clinical Cmax for an agent had not been determined, the highest concentration tested was 10 microM (Table 1).
Cell Culture. All cells were maintained in an incubator at 37 degrees C and 5% CO2 with 95% humidity. The PDC lines were cultured according to standard operating procedures established by the NCI PDMR (https://pdmr.cancer.gov). Briefly, all PDCs were thawed and cultured in Matrigel-coated flasks prepared with a working solution of 1X Ham's F-12 nutrient mix, without supplementation (Invitrogen, Waltham, MA, cat. 11765054), 100 U/mL penicillin-streptomycin (Invitrogen, cat. 15140122), and 2.5% Matrigel (Corning Inc., Corning, NY, cat. 354248) for the first three passages. All PDCs were cultured in complete DMEM/F-12 media containing advanced DMEM/F-12 (Invitrogen, cat. 12634028), 4.9% defined fetal bovine serum, heat inactivated (HyClone Laboratories Inc., Logan, UT, cat. SH30070.03HI), 389 ng/mL hydrocortisone (Sigma-Aldrich, cat. H4001), 9.7 ng/mL human EGF recombinant protein (Invitrogen, cat. PHG0313), 23.4 microg/mL adenine (Sigma-Aldrich, cat. A2786), 97.3 U/mL penicillin-streptomycin (Invitrogen, cat. 15140122), 1.9 mM L-glutamine (Invitrogen, cat. 25030081), and 9.7 microM Y-27632 dihydrochloride (Tocris Bioscience, Bristol, United Kingdom, cat. 1254). The PDCs were cultured in complete DMEM/F12 media without 10 microM Y-27632 dihydrochloride for at least two passages prior to the screen. The established cell lines NCI-H1341 and […] were cultured in DMEM/F-12, HEPES (Invitrogen, cat. 11330032), 5% defined fetal bovine serum (HyClone Laboratories Inc., cat. SH30070.03), ITS premix universal culture supplement [insulin (5 microg/mL), transferrin (5 microg/mL), and selenious acid (5 ng/mL)] […]

[1] = second compound 0.1 µM, first compound 0.0316 µM
[2] = second compound 0.1 µM, first compound 0.1 µM
[3] = second compound 0.1 µM, first compound 0.316 µM
[4] = second compound 0.1 µM, first compound 1 µM
[5] = second compound 0.1 µM, first compound 3.16 µM
[6] = second compound 0.1 µM, first compound 10 µM
[7] = second compound 0.316 µM, first compound 0.0316 µM
[8] = second compound 0.316 µM, first compound 0.1 µM
[9] = second compound 0.316 µM, first compound 0.316 µM
[10] = second compound 0.316 µM, first compound 1 µM
[11] = second compound 0.316 µM, first compound 3.16 µM
[12] = second compound 0.316 µM, first compound 10 µM
[13] = second compound 1 µM, first compound 0.0316 µM
[14] = second compound 1 µM, first compound 0.1 µM
[15] = second compound 1 µM, first compound 0.316 µM
[16] = second compound 1 µM, first compound 1 µM
[17] = second compound 1 µM, first compound 3.16 µM
[18] = second compound 1 µM, first compound 10 µM
[19] = second compound 3.16 µM, first compound 0.0316 µM
[20] = second compound 3.16 µM, first compound 0.1 µM
[21] = second compound 3.16 µM, first compound 0.316 µM
[22] = second compound 3.16 µM, first compound 1 µM
[23] = second compound 3.16 µM, first compound 3.16 µM
[24] = second compound 3.16 µM, first compound 10 µM
[25] = second compound 10 µM, first compound 0.0316 µM
[26] = second compound 10 µM, first compound 0.1 µM
[27] = second compound 10 µM, first compound 0.316 µM
[28] = second compound 10 µM, first compound 1 µM
[29] = second compound 10 µM, first compound 3.16 µM
[30] = second compound 10 µM, first compound 10 µM
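Throughout, for viability, T/C: percent of DMSO vehicle-treated spheroid viability set as 100%.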

- IC50 (second compound 0.1 µM): 0.00938 µM
- IC50 (second compound 0.316 µM): 0.00685 µM
- IC50 (second compound 1 µM): 0.00865 µM
- IC50 (second compound 3.16 µM): 0.0115 µM
- IC50 (second compound 10 µM): 0.0198 µM
Structure (SMILES): CCc1c2c(nc3ccc(O)cc13)-c1cc3c(c(=O)n1C2)COC(=O)[C@]3(O)CC + CC(CO)NC(=O)c1cc(-c2ccc(Cl)cc2)nn(-c2cnn(C)c2)c1=O
- viability, T/C (second compound 0.1 µM, first compound 0.000949 µM): 53.8%
- viability, T/C (second compound 0.1 µM, first compound 0.003 µM): 58.1%
- viability, T/C (second compound 0.1 µM, first compound 0.00949 µM): 52.2%
- viability, T/C (second compound 0.1 µM, first compound 0.03 µM): 36.1%
- viability, T/C (second compound 0.1 µM, first compound 0.0949 µM): 40.8%
- viability, T/C (second compound 0.1 µM, first compound 0.3 µM): 26.7%
- viability, T/C (second compound 0.316 µM, first compound 0.000949 µM): 70.6%
- viability, T/C (second compound 0.316 µM, first compound 0.003 µM): 53.1%
- viability, T/C (second compound 0.316 µM, first compound 0.00949 µM): 48.9%
- viability, T/C (second compound 0.316 µM, first compound 0.03 µM): 38.2%
- viability, T/C (second compound 0.316 µM, first compound 0.0949 µM): 34.6%
- viability, T/C (second compound 0.316 µM, first compound 0.3 µM): 25%
- viability, T/C (second compound 1 µM, first compound 0.000949 µM): 63.5%
- viability, T/C (second compound 1 µM, first compound 0.003 µM): 56.4%
- viability, T/C (second compound 1 µM, first compound 0.00949 µM): 51.5%
- viability, T/C (second compound 1 µM, first compound 0.03 µM): 34.8%
- viability, T/C (second compound 1 µM, first compound 0.0949 µM): 27.9%
- viability, T/C (second compound 1 µM, first compound 0.3 µM): 21%
- viability, T/C (second compound 3.16 µM, first compound 0.000949 µM): 55.8%
- viability, T/C (second compound 3.16 µM, first compound 0.003 µM): 52.6%
- viability, T/C (second compound 3.16 µM, first compound 0.00949 µM): 54.6%
- viability, T/C (second compound 3.16 µM, first compound 0.03 µM): 34.6%
- viability, T/C (second compound 3.16 µM, first compound 0.0949 µM): 26.6%
- viability, T/C (second compound 3.16 µM, first compound 0.3 µM): 19.3%
- viability, T/C (second compound 10 µM, first compound 0.000949 µM): 63.9%
- viability, T/C (second compound 10 µM, first compound 0.003 µM): 54.4%
- viability, T/C (second compound 10 µM, first compound 0.00949 µM): 57.3%
- viability, T/C (second compound 10 µM, first compound 0.03 µM): 47%
- viability, T/C (second compound 10 µM, first compound 0.0949 µM): 30.3%
- viability, T/C (second compound 10 µM, first compound 0.3 µM): 19.4%

- IC50 (second compound 0.1 µM): 0.57 µM
- IC50 (second compound 0.316 µM): 0.666 µM
- IC50 (second compound 1 µM): 0.767 µM
- IC50 (second compound 3.16 µM): 0.841 µM
- IC50 (second compound 10 µM): 1.17 µM
Structure (SMILES): Nc1ccn(C2OC(CO)C(O)C2(F)F)c(=O)n1 (stereo not given) + CC(CO)NC(=O)c1cc(-c2ccc(Cl)cc2)nn(-c2cnn(C)c2)c1=O
- viability, T/C [1]: 81.9%
- viability, T/C [2]: 90.8%
- viability, T/C [3]: 65.8%
- viability, T/C [4]: 35.6%
- viability, T/C [5]: 31.8%
- viability, T/C [6]: 28.1%
- viability, T/C [7]: 92.2%
- viability, T/C [8]: 92.5%
- viability, T/C [9]: 70.7%
- viability, T/C [10]: 38.6%
- viability, T/C [11]: 30.7%
- viability, T/C [12]: 27%
- viability, T/C [13]: 90.9%
- viability, T/C [14]: 77.4%
- viability, T/C [15]: 69.8%
- viability, T/C [16]: 45.3%
- viability, T/C [17]: 26.7%
- viability, T/C [18]: 26.4%
- viability, T/C [19]: 77.5%
- viability, T/C [20]: 79.8%
- viability, T/C [21]: 72.4%
- viability, T/C [22]: 45.6%
- viability, T/C [23]: 30.1%
- viability, T/C [24]: 24.8%
- viability, T/C [25]: 82.9%
- viability, T/C [26]: 80.5%
- viability, T/C [27]: 81.6%
- viability, T/C [28]: 52.3%
- viability, T/C [29]: 36%
- viability, T/C [30]: 33.9%

- IC50 (second compound 0.1 µM): > 10 µM
- IC50 (second compound 0.316 µM): > 10 µM
- IC50 (second compound 1 µM): > 10 µM
- IC50 (second compound 3.16 µM): > 10 µM
- IC50 (second compound 10 µM): > 10 µM
Structure (SMILES): O=C(c1cc(Cc2n[nH]c(=O)c3ccccc23)ccc1F)N1CCN(C(=O)C2CC2)CC1 + CC(CO)NC(=O)c1cc(-c2ccc(Cl)cc2)nn(-c2cnn(C)c2)c1=O
- viability, T/C [1]: 92.9%
- viability, T/C [2]: 95.3%
- viability, T/C [3]: 89.2%
- viability, T/C [4]: 76.7%
- viability, T/C [5]: 66.8%
- viability, T/C [6]: 62.2%
- viability, T/C [7]: 108%
- viability, T/C [8]: 99.6%
- viability, T/C [9]: 103%
- viability, T/C [10]: 82.3%
- viability, T/C [11]: 73.3%
- viability, T/C [12]: 70.4%
- viability, T/C [13]: 99.8%
- viability, T/C [14]: 104%
- viability, T/C [15]: 99.2%
- viability, T/C [16]: 72.3%
- viability, T/C [17]: 76%
- viability, T/C [18]: 67.9%
- viability, T/C [19]: 90.6%
- viability, T/C [20]: 96.7%
- viability, T/C [21]: 83.5%
- viability, T/C [22]: 78.3%
- viability, T/C [23]: 63.5%
- viability, T/C [24]: 59.2%
- viability, T/C [25]: 74.5%
- viability, T/C [26]: 72.7%
- viability, T/C [27]: 74%
- viability, T/C [28]: 71.9%
- viability, T/C [29]: 65.8%
- viability, T/C [30]: 69.7%
